Measurements from EP0659438A1, “Conjugates consisting of peptidic T cell antigens and cell binding groups, and their use for therapy” (BOEHRINGER MANNHEIM GMBH, priority 1993, dated 1995).

Test system: T-cell clone SP2.2
Experiment: cells
Assay type: cell-based, human

Structure (SMILES)	inhibition of conjugate induced proliferation	reduction of P2-induced proliferation [%]	inhibition at 300 µM (Homo sapiens, T-cell, read-out: inhibition of conjugate induced proliferation) [%]	effect on free peptide induced proliferation
CCN(CC)CCCC(C)Nc1ccnc2cc(Cl)ccc12 (centres unmarked) [Chloroquine]	can inhibit	50	100	–
CC(=O)N[C@@H](CC(C)C)C(=O)N[C@@H](CC(C)C)C(=O)N[C@H](C=O)CCCNC(=N)N [Leupeptin]	can inhibit	–	–	almost no effect
